Assay results from patent US7365096B2, “Methods for selectively inhibiting Janus tyrosine kinase 3 (Jak3)” (Board of Regents, The University of Texas System, priority 2002, dated 2008).
“Also recorded” adds a separate entry of the source.

Assays:
Stat5a/b = test: IL-2 activated Stat5a/b tyrosine phosphorylation in YT cells (Western blot); format: cell-based, human; conditions: phospho-Western blots
Description: (§1) Solubilization of membrane proteins, immunoprecipitation, and Western blot analysis. Frozen cell pellets were thawed on ice and solubilized in 1% TX-100 lysis buffer (10^8 cells/ml) and clarified by centrifugation, as previously described.^16 For human T-cells, supernates were incubated rotating end over end for 2 hours at 4° C. with either 5 μl/ml polyclonal rabbit antisera raised against peptides derived from the unique COOH-termini of Jak3 (amino acid [a.a.] 1104-1124), carboxyl termini of human Stat5a (a.a. 775-794) or Stat5b (a.a. 777-787).^26 Ab and immunoprecipitated proteins were captured by incubation for 30 minutes with Protein A-Sepharose beads (Pharmacia, Piscataway, N.J.), sedimented for purification, and eluted by boiling in 2×SDS-sample buffer (20% Glycerol, 10% 2-Mercaptoethanol, 4.6% SDS, 0.004% Bromophenol blue in 0.125 M Tris pH 6.8) for 4 minutes. For phosphoMapk assays, approximately 25 μg of total cell lysate was dissociated in SDS-sample buffer and separated on 10% (all others on 7.5%) SDS-PAGE under reducing conditions. […]

[1] = Kidney function and lipid metabolism in rats on low-salt diet (FIGS. 11A-F); format: in vivo, rat; conditions: 160 mg/kg oral gavage, 14 day therapy
Jak3 [2] = target: T1, Jak3 (Homo sapiens, UniProt P52333); test: IL-2 activated Jak3 tyrosine phosphorylation in YT cells (Western blot); format: cell-based; parameters: endogenous in cells; host or cells: human YT cells; conditions: 1-100 μM, 2 hours, 100 nM IL-2
T1 sequence (P52333 1-1124): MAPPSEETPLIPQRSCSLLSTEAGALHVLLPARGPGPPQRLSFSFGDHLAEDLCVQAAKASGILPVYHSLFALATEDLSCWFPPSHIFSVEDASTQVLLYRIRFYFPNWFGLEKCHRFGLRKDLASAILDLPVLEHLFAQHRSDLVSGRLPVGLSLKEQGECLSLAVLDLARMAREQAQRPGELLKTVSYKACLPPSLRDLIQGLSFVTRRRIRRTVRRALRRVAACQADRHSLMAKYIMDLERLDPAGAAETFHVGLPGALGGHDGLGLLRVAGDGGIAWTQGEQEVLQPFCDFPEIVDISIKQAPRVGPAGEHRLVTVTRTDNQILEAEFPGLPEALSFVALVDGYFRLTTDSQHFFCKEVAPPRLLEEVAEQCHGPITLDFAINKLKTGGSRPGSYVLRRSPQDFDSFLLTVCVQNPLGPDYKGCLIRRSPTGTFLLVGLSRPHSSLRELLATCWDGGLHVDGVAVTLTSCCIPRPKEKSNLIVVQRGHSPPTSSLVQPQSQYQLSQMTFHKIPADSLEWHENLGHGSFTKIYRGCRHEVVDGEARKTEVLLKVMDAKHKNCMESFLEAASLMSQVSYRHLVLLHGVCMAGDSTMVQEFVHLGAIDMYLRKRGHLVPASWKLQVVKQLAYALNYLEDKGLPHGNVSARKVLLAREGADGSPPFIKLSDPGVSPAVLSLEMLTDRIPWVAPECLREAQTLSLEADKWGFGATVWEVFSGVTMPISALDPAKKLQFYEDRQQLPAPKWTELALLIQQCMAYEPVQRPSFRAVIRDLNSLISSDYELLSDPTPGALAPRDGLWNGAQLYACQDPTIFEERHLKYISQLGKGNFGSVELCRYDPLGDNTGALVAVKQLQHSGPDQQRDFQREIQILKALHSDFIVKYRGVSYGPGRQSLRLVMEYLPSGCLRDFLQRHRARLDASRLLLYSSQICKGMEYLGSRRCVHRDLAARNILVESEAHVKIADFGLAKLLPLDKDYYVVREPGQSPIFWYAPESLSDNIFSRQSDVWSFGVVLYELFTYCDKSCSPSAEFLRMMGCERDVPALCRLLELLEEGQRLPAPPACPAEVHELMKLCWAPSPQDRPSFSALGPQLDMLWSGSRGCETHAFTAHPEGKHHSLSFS
Description: as §1

Fyn = Fyn (Homo sapiens, UniProt P06241); test: Tyrosine phosphorylation of activated Fyn in YT cells; format: cell-based; parameters: Cellular extracts were immunoprecipitated with anti-Fyn or anti-Lck antibodies; endogenous in cells; host or cells: YT cells; conditions: 1-100 μM, 2 hours
Jak3 [3] = target: T1, Jak3; test: Jak3 autokinase activity of immunopurified Jak3 (phosphotyrosine Western blot); format: biochemical; parameters: immunopurified Jak3 was assayed for Jak3 autokinase activity and tested by phosphotyrosine Western blot; endogenous in cells
Description: Immunopurified Jak3 was assayed for Jak3 autokinase activity and tested by phosphotyrosine Western blot in the absence or presence of 100 μM ATP and/or drug and compared to controls.
Referring now to FIG. 8, direct evidence is provided that […] (NC1153) inhibits Jak3 signaling pathways. […] The bands identified as “PY-Jak3” reveal only the active Jak3 at the indicated dosages of NC1153, with or without IL-2 and ATP.

Fyn, sequence (P06241 whole entry): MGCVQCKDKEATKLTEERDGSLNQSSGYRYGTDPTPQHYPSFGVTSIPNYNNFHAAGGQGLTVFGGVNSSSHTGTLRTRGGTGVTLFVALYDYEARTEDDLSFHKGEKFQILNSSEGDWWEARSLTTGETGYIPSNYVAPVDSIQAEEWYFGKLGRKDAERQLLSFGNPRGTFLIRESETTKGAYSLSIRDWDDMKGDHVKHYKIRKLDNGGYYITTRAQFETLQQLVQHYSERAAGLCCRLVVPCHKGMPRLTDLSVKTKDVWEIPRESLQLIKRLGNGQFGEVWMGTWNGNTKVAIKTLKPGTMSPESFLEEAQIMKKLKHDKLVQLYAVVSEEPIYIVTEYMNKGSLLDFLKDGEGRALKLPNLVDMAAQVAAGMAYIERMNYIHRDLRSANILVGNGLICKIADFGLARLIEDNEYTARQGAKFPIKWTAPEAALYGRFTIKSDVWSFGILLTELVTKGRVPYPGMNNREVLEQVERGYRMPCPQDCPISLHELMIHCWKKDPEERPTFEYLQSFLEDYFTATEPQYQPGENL

For `CN(C)CC1CCCCCCCCCC(CN(C)C)C1=O` (mixture of isomers) [649641P (NC1153)], the “tyrosine phosphorylation of Stat5a/b” value (Stat5a/b) was “inhibited tyrosine phosphorylation”, the “nephrotoxicity and lipid metabolism (serum creatinine, clearance, cholesterol, triglycerides, LDL, HDL)” value [1] was “is not nephrotoxic and does not affect lipid metabolism” and the “tyrosine phosphorylation of Jak3” value (Jak3 [2]) was “inhibited in a dose-dependent fashion; also recorded: inhibited tyrosine phosphorylation”. For the same compound, the “activity (tyrosine phosphorylation) of Fyn” value (Fyn) was “no effect; also recorded: does not block the activity; also recorded: did not inhibit”, the IC50 (Jak3 [3]; 100 μM ATP) was ~2.5 µM and the “inhibition of Jak3 relative to Jak2 in kinase assays” value (Jak3 [3]; FIG. 9B and FIG. 8) was “At least 50 fold”.
